Test results: patent publication US10011609B2, “Heterocyclic compounds” (CADILA HEALTHCARE LIMITED, priority 2013, dated 2018)
Structures can show the parent of a compound that is named as a salt.

Target: T1, GPR40 (Homo sapiens, UniProt O14842)
T1 construct: host or cells: HEK293 (ChemiBrite cell line)
Test: Promoter-luciferase assay to measure GPR40 activation (HEK293 cells stably transfected with GPR40 cDNA)
Type: cell-based
Details: EC50 in Luciferase assay, HEK293 cells stably transfected with GPR40, 5xSRE-luciferase
Procedure: GPR40 activation was measured in HEK293 cells stably transfected with GPR40 cDNA (ChemiBrite cell lines from Millipore, US). These cells were transiently transfected with a pGL2 (Promega Inc.) plasmid having a 5×SRE sequence, cloned 5′ of a luciferase gene along with a β-galactosidase plasmid as normalizing control. Briefly, 35000 cells/well were seeded in a 96 well plates. After overnight incubation at 37° C., the cells were washed with PBS and transfected with the 5×-SRE-Luciferase plasmid and the β-galactosidase plasmid. 6 h post transfection, media was removed and replaced with fresh media with different concentration of drugs and incubated for 16 more hours. The cells were then lysed in 50 μL of Glo-Lysis buffer (Promega) for 30 min at room temperature. The cells were then centrifuged and lysates were collected. Luciferase activity was measured by adding 100 μL of luciferase substrate (Promega) in 20 μL of lysate and measuring the luminescence in luminometer. The […] activity was also measured by adding 20 μL of lysates with 20 μL of β-galactosidase buffer (Promega) and monitoring the absorbance at 415 nm. Luciferase values were divided by β-galactosidase values to normalize transfection efficiency (Table 2)

T1 sequence (O14842 whole entry, species assumed): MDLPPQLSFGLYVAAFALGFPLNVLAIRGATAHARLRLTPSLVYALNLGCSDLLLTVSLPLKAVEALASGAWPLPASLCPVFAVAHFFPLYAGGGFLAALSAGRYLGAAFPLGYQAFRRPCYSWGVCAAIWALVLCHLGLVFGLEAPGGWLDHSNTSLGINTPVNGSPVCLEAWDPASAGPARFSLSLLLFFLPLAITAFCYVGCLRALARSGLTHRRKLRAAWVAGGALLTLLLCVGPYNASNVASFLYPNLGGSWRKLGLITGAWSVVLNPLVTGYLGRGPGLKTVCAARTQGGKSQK

In order of falling EC50:
1. CC#C[C@@H](CC(=O)[O][Ca][O]C(=O)C[C@H](C#CC)c1ccc(OCc2cccc(CN3CCc4ccccc4C3)c2)cc1)c1ccc(OCc2cccc(CN3CCc4ccccc4C3)c2)cc1 [Compound 20, Calcium (S)-3-(4-((3-((3,4-dihydroisoquinolin-2(1H)-yl)methyl)benzyl)oxy)phenyl)hex-4-ynoate]  2.7 nM
2. CC#C[C@@H](CC(=O)[O][Ca][O]C(=O)C[C@H](C#CC)c1ccc(OCc2cccc(CN3CCc4sc(Cl)cc4C3)c2)cc1)c1ccc(OCc2cccc(CN3CCc4sc(Cl)cc4C3)c2)cc1 [Compound 39, Calcium (S)-3-(4-((3-((2-chloro-6,7-dihydrothieno[3,2-c]pyridin-5(4H)-yl)methyl)benzyl)oxy)phenyl)hex-4-ynoate]  1.7 nM

Same assay, conditions: HEK293 cells stably transfected with GPR40, 5xSRE-luciferase; read-out: EC50 in Luciferase assay

In order of falling EC50:
1. CC#C[C@@H](CC(=O)O)c1ccc(OCc2cccc(CN3CCc4sc(C(=O)O)cc4C3)c2)cc1 [Compound 35, (S)-5-(3-((4-(1-carboxypent-3-yn-2-yl)phenoxy)methyl)benzyl)-4,5,6,7-tetrahydrothieno[3,2-c]pyridine-2-carboxylic acid]  204 nM
2. CC#C[C@H](CC(=O)O)c1ccc(OCc2cccc(CN3CCc4sc(C)cc4C3)c2)cc1 [Compound 55, (R)-3-(4-((3-((2-methyl-6,7-dihydrothieno[3,2-c]pyridin-5(4H)-yl)methyl)benzyl)oxy)phenyl)hex-4-ynoic acid]  56.5 nM
3. CC#C[C@@H](CC(=O)O)c1ccc(OCc2cccc(CN3CCc4nc(OC)ncc4C3)c2)cc1 [Compound 50, (S)-3-(4-((3-((2-Methoxy-7,8-dihydropyrido[4,3-d]pyrimidin-6(5H)-yl)methyl)benzyl)oxy)phenyl)hex-4-ynoic acid]  20.8 nM
4. CC#C[C@@H](CC(=O)O)c1ccc(OCc2cccc(CN3CCc4nc(N)sc4C3)c2)cc1 [Compound 38, (S)-3-(4-((3-((2-amino-6,7-dihydrothiazolo[5,4-c]pyridin-5(4H)-yl)methyl)benzyl)oxy)phenyl)hex-4-ynoic acid]  17.8 nM
5. CC#C[C@@H](CC(=O)O)c1ccc(OCc2cccc(CN3CCc4sc(C(=O)NC5CC5)cc4C3)c2)cc1 [Compound 61, (S)-3-(4-((3-((2-(cyclopropylcarbamoyl)-6,7-dihydrothieno[3,2-c]pyridin-5(4H)-yl)methyl)benzyl)oxy)phenyl)hex-4-ynoic acid]  12.6 nM
6. CC#C[C@@H](CC(=O)O)c1ccc(OCc2cccc(CN3CCc4ncccc4C3)c2)cc1 [Compound 68, (S)-3-(4-((3-((7,8-Dihydro-1,6-naphthyridin-6(5H)-yl)methyl)benzyl)oxy)phenyl) hex-4-ynoic acid]  11.9 nM
7. CC#C[C@@H](CC(=O)O)c1ccc(OCc2cccc(CN3CCc4c(ccn4C(=O)OC(C)(C)C)C3)c2)cc1 [Compound 8, (S)-3-(4-((3-((1-(tert-butoxycarbonyl)-6,7-dihydro-1H-pyrrolo[3,2-c]pyridin-5(4H)-yl)methyl)benzyl)oxy)phenyl)hex-4-ynoic acid]  11.8 nM
8. CC#C[C@@H](CC(=O)O)c1ccc(OCc2cccc(CN3CCc4nc(Cl)sc4C3)c2)cc1 [Compound 31, (S)-3-(4-((3-((2-Chloro-6,7-dihydrothiazolo[5,4-c]pyridin-5(4H)-yl)methyl)benzyl)oxy)phenyl)hex-4-ynoic acid]  9.7 nM
9. CC#C[C@@H](CC(=O)O)c1ccc(OCc2cccc(CN3CCc4sc(C(=O)N(C)C)cc4C3)c2)cc1 [Compound 47, (S)-3-(4-((3-((2-(dimethylcarbamoyl)-6,7-dihydrothieno[3,2-c]pyridin-5(4H)-yl)methyl)benzyl)oxy)phenyl)hex-4-ynoic acid]  9 nM
10. CC#C[C@@H](CC(=O)O)c1ccc(OCc2cccc(CN3CCc4sc(C(F)F)cc4C3)c2)cc1 [Compound 18, (S)-3-(4-((3-((2-(Difluoromethyl)-6,7-dihydrothieno[3,2-c]pyridin-5(4H)-yl)methyl)benzyl)oxy)phenyl)hex-4-ynoic acid]  8.8 nM
11. CC#C[C@@H](CC(=O)O)c1ccc(OCc2cccc(CN3CCc4sc(C(N)=O)cc4C3)c2)cc1 [Compound 40, (S)-3-(4-((3-((2-carbamoyl-6,7-dihydrothieno[3,2-c]pyridin-5(4H)-yl)methyl)benzyl)oxy)phenyl)hex-4-ynoic acid]  8 nM
12. CC#C[C@@H](CC(=O)O)c1ccc(OCc2cccc(CN3CCc4sc(C#N)cc4C3)c2)cc1 [Compound 43, (S)-3-(4-((3-((2-cyano-6,7-dihydrothieno[3,2-c]pyridin-5(4H)-yl)methyl)benzyl)oxy)phenyl)hex-4-ynoic acid]  7.3 nM
13. CC#C[C@@H](CC(=O)O)c1ccc(OCc2cccc(CN3CCc4sc(C(=O)NC)cc4C3)c2)cc1 [Compound 46, (S)-3-(4-((3-((2-(methylcarbamoyl)-6,7-dihydrothieno[3,2-c]pyridin-5(4H)-yl)methyl)benzyl)oxy)phenyl)hex-4-ynoic acid]  6 nM
14. CC#C[C@@H](CC(=O)O)c1ccc(OCc2cccc(CN3Cc4ccccc4C3)c2)cc1 [Compound 12, (S)-3-(4-((3-(isoindolin-2-ylmethyl)benzyl)oxy)phenyl)hex-4-ynoic acid trifluoroacetic acid]  5.6 nM
15. CC#C[C@@H](CC(=O)O)c1ccc(OCc2cccc(CN3CC4CC(C3)O4)c2)cc1 [Compound 23, (3S)-3-(4-((3-(6-Oxa-3-azabicyclo[3.1.1]heptan-3-ylmethyl)benzyl)oxy)phenyl)hex-4-ynoic acid]  5.3 nM
16. CC#C[C@@H](CC(=O)O)c1ccc(OCc2cccc(CN3CCc4nc(Br)sc4C3)c2)cc1 [Compound 32, (S)-3-(4-((3-((2-Bromo-6,7-dihydrothiazolo[5,4-c]pyridin-5(4H)-yl)methyl)benzyl)oxy)phenyl)hex-4-ynoic acid]  4.8 nM
17. CC#C[C@@H](CC(=O)O)c1ccc(OCc2cccc(CN3CCc4sc(C=O)cc4C3)c2)cc1 [Compound 44, (S)-3-(4-((3-((2-formyl-6,7-dihydrothieno[3,2-c]pyridin-5(4H)-yl)methyl)benzyl)oxy)phenyl)hex-4-ynoic acid]  4.8 nM
18. CC#C[C@@H](CC(=O)O)c1ccc(OCc2cccc(CN3CCc4ccccc4C3)c2)cc1 [Compound 15, (S)-3-(4-((3-((3,4-dihydroisoquinolin-2(1H)-yl)methyl)benzyl)oxy)phenyl)hex-4-ynoic acid]  4.6 nM
19. CC#C[C@@H](CC(=O)O)c1ccc(OCc2cccc(CN3CCCc4ccc(OC)cc43)c2)cc1 [Compound 30, 1-(3-((4-((S)-1-carboxypent-3-yn-2-yl)phenoxy)methyl)benzyl)-7-methoxy-1,2,3,4-tetrahydroquinolin-1-ium formate]  4.5 nM
20. CC#C[C@@H](CC(=O)O)c1ccc(OCc2cccc(CN3CCc4sc(NC(C)=O)cc4C3)c2)cc1 [Compound 63, (S)-3-(4-((3-((2-Aacetamido-6,7-dihydrothieno[3,2-c]pyridin-5(4H)-yl)methyl)benzyl)oxy)phenyl)hex-4-ynoic acid]  4.4 nM
21. CC#C[C@@H](CC(=O)O)c1ccc(OCc2cccc(CN3CCc4oc(C5CC5)nc4C3)c2)cc1 [Compound 26, (S)-3-(4-((3-((2-Cyclopropyl-6,7-dihydrooxazolo[4,5-c]pyridin-5(4H)-yl)methyl)benzyl)oxy)phenyl)hex-4-ynoic acid]  4.1 nM
22. CC#CC(CC(=O)O)c1ccc(OCc2cccc(CN3CCc4sc(C)cc4C3)c2)cc1 (stereo not drawn) [Compound 58, 3-(4-((3-((2-Methyl-6,7-dihydrothieno[3,2-c]pyridin-5(4H)-yl)methyl)benzyl)oxy)phenyl)hex-4-ynoic acid]  3.7 nM
23. CC#C[C@@H](CC(=O)O)c1ccc(OCc2cccc(CN3CCCC3c3ccccc3)c2)cc1 (stereo partly drawn) [Compound 51, (3S)-3-(4-((3-((2-phenylpyrrolidin-1-yl)methyl)benzyl)oxy)phenyl)hex-4-ynoic acid]  3 nM
24. CC#C[C@@H](CC(=O)O)c1ccc(OCc2cccc(CN3CCc4sc(C(=O)N5CCCC5)cc4C3)c2)cc1 [Compound 62, (S)-3-(4-((3-((2-(pyrrolidine-1-carbonyl)-6,7-dihydrothieno[3,2-c]pyridin-5(4H)-yl)methyl)benzyl)oxy)phenyl)hex-4-ynoic acid]  3 nM
25. CC#C[C@@H](CC(=O)O)c1ccc(OCc2cccc(CN3CCc4ncncc4C3)c2)cc1 [Compound 21, (S)-3-(4-((3-((7,8-Dihydropyrido[4,3-d]pyrimidin-6(5H)-yl)methyl)benzyl)oxy)phenyl)hex-4-ynoic acid]  2.8 nM
26. CC#C[C@@H](CC(=O)O)c1ccc(OCc2cccc(CN3CCc4sc([N+](=O)[O-])cc4C3)c2)cc1 [Compound 65, (S)-3-(4-((3-((2-Nitro-6,7-dihydrothieno[3,2-c]pyridin-5(4H)-yl)methyl)benzyl)oxy)phenyl)hex-4-ynoic acid]  1.6 nM
27. CC#C[C@@H](CC(=O)O)c1ccc(OCc2cccc(CN3CCCc4ccccc43)c2)cc1 [Compound 13, (S)-3-(4-((3-((3,4-dihydroquinolin-1(2H)-yl)methyl)benzyl)oxy)phenyl)hex-4-ynoic acid]  0.8 nM
28. CC#C[C@@H](CC(=O)O)c1ccc(OCc2cccc(CN3CCc4ccccc43)c2)cc1 [Compound 24, (S)-3-(4-((3-(Indolin-1-ylmethyl)benzyl)oxy)phenyl)hex-4-ynoic acid]  0.7 nM
